Assays:
[1] = system: patients with advanced myeloid malignancies (MF, AML); assay: Phase 1 clinical benefit rate (IWG criteria); type: in vivo, human
Method: At screening/baseline, patients underwent a medical history, physical examination, vital sign assessment, ECOG PS assessment, electrocardiogram, and assessment of hematologic parameters and blood chemistry. Hematology/blood chemistry, physical examinations, and vital sign assessments were performed throughout treatment. Toxicity was assessed using the National Cancer Institute Common Terminology Criteria for Adverse Events (NCIC-CTCAE), version 3.0, with relationship to treatment assigned by the investigator and were recorded from the first dose of pacritinib until 30 days after the last dose. Bone marrow biopsy and/or aspirate samples were drawn at baseline, on day 1 of cycle 4 and cycle 10, as clinically indicated, and at the termination visit. Disease response and progression were determined using the relevant International Working Group (IWG) criteria. The primary objective of phase 1 was to establish the MTD of pacritinib in patients with advanced myeloid malignancies, defined as the highest dose level at which no more than one out of six patients in the cohort experienced a DLT during cycle 1 ([…]) of therapy. […] Secondary objectives in phase 1 of the study included safety and PK analysis. Clinical benefit rate was assessed as an exploratory endpoint, defined as the proportion of patients who experienced a complete response, partial response, clinical improvement, or stable disease (SD) during the study.

patients with MF = assay: Phase 2 spleen response (volume by MRI, length by physical examination); type: in vivo, human; settings: phase 2, 400 mg QD
Method: In phase 2, abdominal MRI to assess spleen and liver volume was performed on day 1 of cycles 1, 4, and 7 and then day 1 of every third cycle through cycle 25. Spleen size (length) was also assessed by manual palpation with each scheduled physical examination. The phase 2 study protocol was amended in September 2009 to include the MF Quality of Life and Symptoms Assessment Tool. […] The instrument was administered pre-dose on day 1 of cycles 1, 2, 4, 7, and 10 and then on day 1 of every third cycle through cycle 25.
The primary endpoint of the phase 2 component was the proportion of the efficacy population who achieved a ≥35% reduction in spleen volume from baseline at week 24, as measured by MRI. Spleen response rate was also assessed in terms of a ≥35% reduction in spleen volume by MRI up to week 24 and end of treatment and as a ≥50% reduction in spleen length by physical examination up to week 24 and end of treatment. Duration of response was not analyzed due to limitations in the proportion of responders. An exploratory endpoint was the proportion of patients with a ≥50% reduction in MF Quality of Life and Symptoms Assessment Tool at week 24 compared with baseline.
The planned sample size of 29 patients for the phase 2 component provided 80% power to detect a spleen response rate of ≥30% versus the null hypothesis of a response rate of ≤10%, with α = 0.05 (two-sided). The efficacy-evaluable population included those patients with a baseline and corresponding follow-up value. The safety population included all enrolled patients who received ≥1 dose of pacritinib.

## C1=C/COCc2cc(ccc2OCCN2CCCC2)Nc2nccc(n2)-c2cccc(c2)COC/1 [pacritinib, 11-(2-pyrrolidin-1-yl-ethoxy)-14,19-dioxa-5,7,26-triaza-tetracyclo[19.3.1.1(2,6). 1(8,12)]heptacosa-1(25),2(26),3,5,8,10,12(27),16,21,23-decaene]
[1]; phase 1
  Dose–response correlation of clinical benefit: No clear dose–response correlation was observed
[1]; phase 1, n = 43
  Overall clinical benefit rate: 86.0%
  Patients achieving clinical improvement: 13 patients
  Patients having stable disease: 24 patients
[1]; phase 1, patients with AML (3/7)
  Clinical benefit rate: 42.9%
[1]; phase 1, patients with MF (34/36)
  Clinical benefit rate: 94.4%
Patients with MF; at week 24 (4/17)
  Evaluable patients achieving ≥35% spleen volume reduction by MRI (primary endpoint): 23.5%
Patients with MF; at week 24 (9/19)
  Patients achieving ≥50% spleen length reduction by physical examination: 47.4%
Patients with MF; up to end of treatment (7/23)
  Patients achieving ≥35% spleen volume reduction by MRI: 30.4%
Patients with MF; up to end of treatment (12/31)
  Patients achieving ≥50% spleen length reduction by physical examination: 38.7%

Source: publication PMC5146859, “Phase 1/2 study of pacritinib, a next generation JAK2/FLT3 inhibitor, in myelofibrosis or other myeloid malignancies” (Journal of Hematology & Oncology, 2016)
